Experimental data published in patent publication US20250161245A1, “A MIXTURE OF UREA, BIURET AND N-CONTAINING BY-PRODUCTS CREATED DURING BIURET PRODUCTION AS A DIETARY NON-PROTEIN NITROGEN-SOURCE FOR RUMINANTS AND USES THEREOF” (Yara International ASA, priority 2022, published 2025).

Legend:
[1] = animal performance of steers with NPN supplementation (Example 3); format: in vivo, crossbred yearling steers
From the text: A total of 72 crossbred yearling steers [303 kg±29 kg initial body weight (BW) were stratified by body weight (BW) and randomly allocated to three treatments. All steers consumed a basal diet of corn silage, cotton-gin trash, and a premix of vitamins and minerals.
The steers were housed in pens (8 steers/pen, 3 pens/treatment). The steers were supplemented with two different NPN-sources on an isonitrogenous basis, considering as reference the N provided by urea when included at 1 wt. % of the diet in dry matter (DM) basis.
In Table 5, the composition of the basal diet supplemented with two different types of NPN, i.e. urea (Urea) (46% N) and a mixture of urea and biuret according to the present disclosure (UB), with composition as in example 1 (41% N) is shown.
The gain to feed ratio (G:F) was computed as the ratio of the average daily gain (ADG) to daily dry matter intake (DMI). The feed intake was recorded daily. The individual intake was determined via the GrowSafe® intake monitoring system. In cattle management, GrowSafe Systems is a commonly used tool to closely monitor individual animal feeding data using radio frequency identification (RFID) tag technology. The animals are equipped with a unique RFID tag that is read by the feed bunks each time the animal lowers its head into the bunk to consume feed. Average daily weight gain (ADG) and feed efficiency were calculated during the performance evaluation. The ADG was determined by the difference between the final BW and the initial BW divided by the number of days of the performance evaluation (56 days). The initial BW was calculated as the average unshrunk BW of […] on days 16 and 17. The final BW was the average unshrunk BW measured on days 72 and 73. The unshrunk BW was obtained every 14 days.

rumen microbes = assay: microbial protein synthesis, 15N batch culture (Example 4); format: cell-based, Angus crossbred steers; details: 24 hours of incubation
Protocol: The in vitro incubations were conducted on three separate days (replicates). A representative sample of digesta was collected from different places in the rumen of ruminally cannulated steers and strained through 4 layers of cheesecloth, placed in pre-warmed thermos containers, and transported to the laboratory within 30 minutes after the collection. In the laboratory, the ruminal fluid from the two steers was maintained under constant CO2-flux and was combined in equal proportions. This combined ruminal fluid was mixed with McDougall's buffer (McDougall, 1948) with and without 0.077 g/liter of 10 wt. % ammonium sulfate enriched with ^15N in relation 1:4, and it was used as an inoculum. Two bottles of 500 ml fitted with a side arm and a rubber septum were incubated per treatment. […] At the end of the 24 hours incubation, the final pH was recorded, the bottles were placed on ice to prevent further microbial fermentation and two 10-ml samples were collected and acidified by adding 20 μl of a 20 vol/vol % of H2SO4-solution and were frozen at minus 20° C. until further analysis. […]
The total nitrogen (N) and the isotopic supplement were measured in the whole content and the bacterial pellet by an isotopic ratio mass spectrometry using a Vario Micro cube from Elementar Analyzer System GmbH. […]

NC(N)=O [Urea, urea]
DMI ([1]; days 0-14): 6.82 kg/day | G:F ([1]; days 0-14): 0.10 kg/kg | DMI ([1]; days 0-28): 7.03 kg/day | G:F ([1]; days 0-28): 0.11 kg/kg | DMI ([1]; days 0-42): 7.24 kg/day | G:F ([1]; days 0-42): 0.14 kg/kg | ADG ([1]; days 0-56): 1.01 kg | DMI ([1]; days 0-56): 7.29 kg/day | G:F ([1]; days 0-56): 0.14 kg/kg | DMI (% of BW) ([1]; steers): 2.31 % of BW | NEg ([1]; steers): 0.55 Mcal/kg of DM | Initial BW ([1]; steers, baseline, NPN 1.00 wt. % urea or 1.12 wt. % UB of diet DM): 288.69 kg | Final BW ([1]; steers, end of 56 days performance evaluation): 343.69 kg | Bacteria N (rumen microbes): 67.34 mg | EMPS (rumen microbes): 34.46 g of bacteria N/kg of OM truly digested
